Results as given in ChEMBL document CHEMBL1201862, “PubChem BioAssay data set” (2004).
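Where inhibition never reached the appropriate level, the endpoint shown equals the highest concentration tested. Otherwise, values were interpolated linearly from a five-concentration, 48-hour dose response in 96-well plates. At the GI50, growth is halved.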 Calls of active or inactive are those of the source. Cut-off read from the data, not from the text of the source: active = GI50 up to about 1.1 µM and inactive = higher.

How the values were obtained:
Assay in all cases: DTP human tumour cell line panel, 48 h
SK-MEL-2 = system: SK-MEL-2
NCI-H460 = system: NCI-H460
A549 = system: A549
NCI/ADR-RES = system: NCI/ADR-RES
SK-OV-3 = system: SK-OV-3
SNB-19 = system: SNB-19
CAKI-1 = system: CAKI-1
SF-295 = system: SF-295
ACHN = system: ACHN
OVCAR-5 = system: OVCAR-5
SNB-75 = system: SNB-75
NCI-H522 = system: NCI-H522
HCC 2998 = system: HCC 2998
DU-145 = system: DU-145
NCI-H226 = system: NCI-H226
COLO 205 = system: COLO 205
TK-10 = system: TK-10
HL-60 = system: HL-60
NCI-H23 = system: NCI-H23
HT-29 = system: HT-29

Measured: GI50

CCCCSC1=N/C(=C\c2ccco2)C(=O)N1
inactive: SK-MEL-2 54.8 µM | NCI-H460 39.5 µM | A549 43.6 µM | NCI/ADR-RES 31.9 µM | SK-OV-3 > 100 µM | SNB-19 63.8 µM | CAKI-1 74.5 µM | SF-295 45.5 µM | ACHN > 100 µM | OVCAR-5 > 100 µM | SNB-75 25.9 µM | NCI-H522 28.9 µM | HCC 2998 30 µM | DU-145 67.8 µM | NCI-H226 51.5 µM | COLO 205 26.1 µM | TK-10 59.6 µM | HL-60 18.2 µM | NCI-H23 36.3 µM | HT-29 47.6 µM

COC(=O)c1ccccc1/C=C1\Cc2cc3c(cc2C1=O)CCC3
inactive: SK-MEL-2 20.7 µM | NCI-H460 > 100 µM | A549 > 100 µM | NCI/ADR-RES > 100 µM | SK-OV-3 > 100 µM | SNB-19 > 100 µM | CAKI-1 > 100 µM | SF-295 43.5 µM | ACHN > 100 µM | OVCAR-5 > 100 µM | SNB-75 34.9 µM | NCI-H522 68.9 µM | HCC 2998 > 100 µM | DU-145 > 100 µM | NCI-H226 > 100 µM | COLO 205 > 100 µM | TK-10 59.8 µM | HL-60 > 100 µM | NCI-H23 > 100 µM | HT-29 > 100 µM

O=C(/N=C1/OC(CN2CCOCC2)CN1C(=O)Nc1ccccc1)Nc1ccccc1 (stereo not given)
inactive: SK-MEL-2 > 100 µM | NCI-H460 > 100 µM | A549 > 100 µM | NCI/ADR-RES > 100 µM | SK-OV-3 > 100 µM | SNB-19 > 100 µM | CAKI-1 > 100 µM | SF-295 > 100 µM | ACHN > 100 µM | OVCAR-5 > 100 µM | SNB-75 54.7 µM | NCI-H522 > 100 µM | HCC 2998 > 100 µM | DU-145 > 100 µM | NCI-H226 > 100 µM | COLO 205 > 100 µM | TK-10 > 100 µM | HL-60 > 100 µM | NCI-H23 > 100 µM | HT-29 > 100 µM

COc1ccc(C(=O)Nc2ccc3oc(-c4ccccc4)nc3c2)cc1
inactive: SK-MEL-2 > 100 µM | NCI-H460 > 100 µM | A549 > 100 µM | NCI/ADR-RES 70.1 µM | SK-OV-3 56.4 µM | SNB-19 50.5 µM | CAKI-1 > 100 µM | SF-295 > 100 µM | ACHN > 100 µM | OVCAR-5 > 100 µM | SNB-75 29 µM | NCI-H522 > 100 µM | HCC 2998 > 100 µM | DU-145 > 100 µM | NCI-H226 > 100 µM | COLO 205 > 100 µM | TK-10 > 100 µM | HL-60 > 100 µM | NCI-H23 > 100 µM | HT-29 > 100 µM

COC1=CC(=O)N(C)C(O)C1(C#N)OC1OC(CO)C(O)C(O)C1O (stereo not given)
inactive: SK-MEL-2 > 100 µM | NCI-H460 > 100 µM | A549 > 100 µM | NCI/ADR-RES > 100 µM | SK-OV-3 > 100 µM | SNB-19 > 100 µM | CAKI-1 > 100 µM | SF-295 > 100 µM | ACHN > 100 µM | OVCAR-5 > 100 µM | SNB-75 > 100 µM | NCI-H522 > 100 µM | HCC 2998 > 100 µM | DU-145 > 100 µM | NCI-H226 > 100 µM | COLO 205 > 100 µM | TK-10 > 100 µM | HL-60 > 100 µM | NCI-H23 > 100 µM | HT-29 > 10 µM

CC(=O)OC/C=C(/C=C/CNC1CCCCC1)OC(C)=O
inactive: SK-MEL-2 19.8 µM | NCI-H460 24.1 µM | A549 47.8 µM | NCI/ADR-RES 19.6 µM | SK-OV-3 19.6 µM | SNB-19 24.5 µM | CAKI-1 13.8 µM | SF-295 18.1 µM | ACHN 16.4 µM | OVCAR-5 16.3 µM | SNB-75 31.3 µM | NCI-H522 21.4 µM | HCC 2998 23.4 µM | DU-145 17 µM | NCI-H226 25.9 µM | COLO 205 13.9 µM | TK-10 16.6 µM | HL-60 > 10 µM | NCI-H23 16.3 µM | HT-29 18.6 µM

C[N+]1(CCCCN2c3ccccc3Sc3cc(N=[N+]=[N-])ccc32)CCN(C(=O)CCNC(=O)Cc2ccc(C(=O)c3ccccc3)cc2)CC1
inactive: SK-MEL-2 29.4 µM | NCI-H460 24.6 µM | A549 27.4 µM | NCI/ADR-RES 35.9 µM | SK-OV-3 29 µM | SNB-19 26.9 µM | CAKI-1 25.2 µM | SF-295 21.7 µM | ACHN 19.2 µM | OVCAR-5 21.7 µM | SNB-75 20.3 µM | NCI-H522 24.4 µM | HCC 2998 16.1 µM | DU-145 19.1 µM | NCI-H226 36.1 µM | COLO 205 14.7 µM | TK-10 11.4 µM | HL-60 9.1 µM | NCI-H23 26.4 µM | HT-29 18.1 µM
